Legend:
[1] = target: Poly [ADP-ribose] polymerase 1 (Homo sapiens, UniProt P09874); assay: Inhibition of PARP1 (unknown origin) using activated DNA as substrate measured after 60 mins in presence of biotinylated NAD by colorimetric assay
[2] = Inhibition of goat lenses ALR2 using glyceraldehyde as substrate measured for 5 mins by UV-spectrophotometric method; design: species or system Capra hircus

Poly [ADP-ribose] polymerase 1, sequence (P09874 whole entry): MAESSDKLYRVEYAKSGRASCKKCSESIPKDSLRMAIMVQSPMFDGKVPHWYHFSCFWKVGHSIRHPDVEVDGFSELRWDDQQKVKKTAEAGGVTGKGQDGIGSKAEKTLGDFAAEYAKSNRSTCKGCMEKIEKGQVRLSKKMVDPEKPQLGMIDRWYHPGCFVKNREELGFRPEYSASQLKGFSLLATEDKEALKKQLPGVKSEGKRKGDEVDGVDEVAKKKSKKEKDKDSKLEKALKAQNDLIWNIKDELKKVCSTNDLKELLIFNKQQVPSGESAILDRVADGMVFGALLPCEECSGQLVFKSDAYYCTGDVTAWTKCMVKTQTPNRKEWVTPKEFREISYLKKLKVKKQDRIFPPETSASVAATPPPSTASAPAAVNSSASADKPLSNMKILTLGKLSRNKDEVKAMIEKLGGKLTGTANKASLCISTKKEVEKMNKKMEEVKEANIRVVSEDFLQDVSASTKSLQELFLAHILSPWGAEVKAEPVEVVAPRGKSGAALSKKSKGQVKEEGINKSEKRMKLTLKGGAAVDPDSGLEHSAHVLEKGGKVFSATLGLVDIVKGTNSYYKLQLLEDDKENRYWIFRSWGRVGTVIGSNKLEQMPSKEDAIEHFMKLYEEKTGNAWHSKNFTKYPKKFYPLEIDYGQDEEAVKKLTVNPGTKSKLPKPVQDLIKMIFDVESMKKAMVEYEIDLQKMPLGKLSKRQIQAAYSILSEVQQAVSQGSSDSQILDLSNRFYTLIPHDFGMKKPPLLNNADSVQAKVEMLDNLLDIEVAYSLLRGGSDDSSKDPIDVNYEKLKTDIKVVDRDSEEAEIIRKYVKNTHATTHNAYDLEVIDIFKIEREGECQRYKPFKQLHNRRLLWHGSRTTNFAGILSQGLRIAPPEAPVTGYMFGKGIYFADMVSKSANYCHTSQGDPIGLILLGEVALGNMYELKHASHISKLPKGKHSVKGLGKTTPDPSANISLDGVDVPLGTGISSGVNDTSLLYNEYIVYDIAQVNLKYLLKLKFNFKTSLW

SMILES	IC50 [1] [µM]	IC50 [2] [µM]
CC(C)c1ccc(Cn2cc(C=C3SC(=O)NC3=O)c3ccccc32)cc1	0.74	40
O=C1NC(=O)/C(=C/c2cn(Cc3ccc(F)cc3)c3ccccc23)S1		1.7
O=C1NC(=O)/C(=C/c2c[nH]c3ccccc23)S1	> 100	16.4
Cc1ccc(Cn2cc(C=C3SC(=O)NC3=O)c3ccccc32)cc1		11.5
O=C1NC(=O)/C(=C/c2cn(Cc3ccccc3Cl)c3ccccc23)S1		4.72
CCc1ccc(Cn2cc(C=C3SC(=O)NC3=O)c3ccccc32)cc1		13.9
CC(/C=C1\SC(=S)N(CC(=O)O)C1=O)=C\c1ccccc1		0.09
CC(C)(C)c1ccc(Cn2cc(/C=C3\SC(=O)NC3=O)c3ccccc32)cc1		48.5

The remaining compounds from weak to strong by IC50 [2], led by results:

IC50 [1] [µM]	IC50 [2] [µM]	SMILES
	24.4	O=C1NC(=O)/C(=C/c2cn(Cc3ccc(Cl)cc3Cl)c3ccccc23)S1
	23	O=C1NC(=O)/C(=C/c2cn(Cc3cccc(Cl)c3)c3ccccc23)S1
	22.9	O=C1NC(=O)/C(=C/c2cn(Cc3cccc(C(F)(F)F)c3)c3ccccc23)S1
> 100	15.4	O=C1NC(=O)/C(=C/c2cn(Cc3ccc(Cl)cc3)c3ccccc23)S1
> 100	6.57	O=C1NC(=O)/C(=C/c2cn(Cc3ccccc3)c3ccccc23)S1

Source: ChEMBL document CHEMBL4028835, “Identification of low micromolar dual inhibitors for aldose reductase (ALR2) and poly (ADP-ribose) polymerase (PARP-1) using structure based design approach” (Bioorg Med Chem Lett, 2017)
